These compounds were tested against T1, Recombinant autotaxin (Homo sapiens, UniProt Q13822) (assay: Autotaxin assay (Amplex Red, LPC substrate)). Conditions: % of control at 1E−05 (compound concentration); uninhibited control = 100%.
T1 construct: made in house; host or cells: Hi5 insect cells (baculovirus)
Type: biochemical
Procedure, shortened: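 Recombinant autotaxin (Hi5 baculovirus, 16 ng) pre-incubated with compound 30 min at 22° C, then reacted with 75 μM egg LPC for 90 min at 37° C. Choline released is coupled to H2O2 and Amplex Red fluorescence (ex 485/em 612 nm). IC50 from ten 1:3 dilutions from 30 μM, duplicates, normalised to 500 μM C14 LPA.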

% CTRL (1E−05) [%] | SMILES
83 | O=C(Nc1ccc2[nH]nnc2c1)C1CC(=O)N(C2CCN(C(=O)OCC3CCCO3)CC2)C1 (stereo not drawn) [Compound 27, 4-[4-(1H-Benzotriazol-5-ylcarbamoyl)-2-oxo-pyrrolidin-1-yl]-piperidine-1-carboxylic acid tetrahydro-furan-2-ylmethyl ester]
66 | O=C(c1cc(Cl)c(F)c(Cl)c1)N1CCC(N2CCN(C(=O)c3ccc4[nH]nnc4c3)CC2)CC1 [Compound 91, (1H-Benzotriazol-5-yl)-{4-[1-(3,5-dichloro-4-fluoro-benzoyl)-piperidin-4-yl]-piperazin-1-yl}-methanone]

Same assay, conditions: recombinant autotaxin, LPC substrate, Amplex Red detection; values given as upper bounds

SMILES | IC50 [µM]
O=C(Nc1ccc(-n2cncn2)cc1)C1CC(=O)N(C2CCN(C(=O)OCc3cc(Cl)cc(Cl)c3)CC2)C1 (stereo not drawn) [Compound 54, 4-[2-Oxo-4-(4-[1,2,4]triazol-1-yl-phenylcarbamoyl)-pyrrolidin-1-yl]-piperidine-1-carboxylic acid 3,5-dichloro-benzyl ester] | < 10
CC(C)c1ccc(COC(=O)N2CCN(C3CCN(C(=O)c4ccc5[nH]nnc5c4)CC3)CC2)cc1 [Compound 43, 4-[1-(1H-Benzotriazole-5-carbonyl)-piperidin-4-yl]-piperazine-1-carboxylic acid 4-isopropyl-benzyl ester] | < 1
O=C(Nc1ccc2[nH]nnc2c1)c1cncc(N2CCN(C(=O)OCc3ccc(Cl)cc3)CC2)c1 [Compound 6, 4-[5-(1H-Benzotriazol-5-ylcarbamoyl)-pyridin-3-yl]-piperazine-1-carboxylic acid 4-chloro-benzyl ester] | < 30
O=C(OCc1cc(Cl)cc(Cl)c1)N1CCN(C2CCN(C(=O)c3ccc4[nH]nnc4c3)CC2)CC1 [Compound 19, 4-[1-(1H-Benzotriazole-5-carbonyl)-piperidin-4-yl]-piperazine-1-carboxylic acid 3,5-dichloro-benzyl ester] | < 1
O=C(OCc1cc(Cl)c(F)c(Cl)c1)N1CCC(N2CCN(C(=O)c3ccc4[nH]nnc4c3)CC2)CC1 [Compound 93, 4-[4-(1H-Benzotriazole-5-carbonyl)-piperazin-1-yl]-piperidine-1-carboxylic acid 3,5-dichloro-4-fluoro-benzyl ester] | < 1
O=C(Nc1ccc(-n2cccn2)cc1)C1CC(=O)N(C2CCN(C(=O)OCc3cc(Cl)cc(Cl)c3)CC2)C1 (stereo not drawn) [Compound 55, 4-[2-Oxo-4-(4-pyrazol-1-yl-phenylcarbamoyl)-pyrrolidin-1-yl]-piperidine-1-carboxylic acid 3,5-dichloro-benzyl ester] | < 10
Cc1c(Br)cc(COC(=O)N2CCN(C3CCN(C(=O)c4ccc5[nH]nnc5c4)CC3)CC2)cc1Br [Compound 98, 4-[1-(1H-Benzotriazole-5-carbonyl)-piperidin-4-yl]-piperazine-1-carboxylic acid 3,5-dibromo-4-methyl-benzyl ester] | < 1
O=C(OCc1cn(-c2ccc(Cl)cc2)nn1)N1CCN(C2CCN(C(=O)c3ccc4[nH]nnc4c3)CC2)CC1 [Compound 131, 4-[1-(1H-Benzotriazole-5-carbonyl)-piperidin-4-yl]-piperazine-1-carboxylic acid 1-(4-chloro-phenyl)-1H-[1,2,3]triazol-4-ylmethyl ester] | < 30
O=C(OCc1cc(Cl)cc(Cl)c1)N1CCC(NC2CCN(C(=O)c3ccc4[nH]nnc4c3)CC2)C1 (stereo not drawn) [Compound 51, 3-[1-(1H-Benzotriazole-5-carbonyl)-piperidin-4-ylamino]-pyrrolidine-1-carboxylic acid 3,5-dichloro-benzyl ester] | < 1
O=C(OCc1cc(Cl)cc(Cl)c1)N1CCC2(CC1)CCN(C(=O)c1ccc3[nH]nnc3c1)CC2 [Compound 29, 9-(1H-Benzotriazole-5-carbonyl)-3,9-diaza-spiro[5.5]undecane-3-carboxylic acid 3,5-dichloro-benzyl ester] | < 30
O=C(Cc1ccc2[nH]nnc2c1)N1CCC(N2CCN(C(=O)Cc3cc(C(F)(F)F)cc(C(F)(F)F)c3)CC2)CC1 [Compound 141, 2-(1H-Benzotriazol-5-yl)-1-(4-{4-[2-(3,5-bis-trifluoromethyl-phenyl)-acetyl]-piperazin-1-yl}-piperidin-1-yl)-ethanone] | < 10
O=C(OCc1ccc(SC(F)(F)F)cc1)N1CCC(N2CCN(C(=O)c3ccc4[nH]nnc4c3)CC2)CC1 [Compound 86, 4-[4-(1H-Benzotriazole-5-carbonyl)-piperazin-1-yl]-piperidine-1-carboxylic acid 4-trifluoromethylsulfanyl-benzyl ester] | < 1
Cc1cc(CCC(=O)N2CCN(C3CCN(C(=O)c4ccc5[nH]nnc5c4)CC3)CC2)cc(C)c1F [Compound 106, 1-{4-[1-(1H-Benzotriazole-5-carbonyl)-piperidin-4-yl]-piperazin-1-yl}-3-(4-fluoro-3,5-dimethyl-phenyl)-propan-1-one] | < 10
O=C(OCc1cccc(C(F)(F)F)c1)N1CCN(C2CCN(C(=O)c3ccc4[nH]nnc4c3)CC2)CC1 [Compound 115, 4-[1-(1H-Benzotriazole-5-carbonyl)-piperidin-4-yl]-piperaizne-1-carboxylic acid 3-trifluoromethyl-benzyl ester] | < 1
O=C(Nc1ccc2[nH]nnc2c1)c1cccc(N2CCN(C(=O)OCc3ccc(Cl)cc3)CC2)c1 [Compound 10, 4-[3-(1H-Benzotriazol-5-ylcarbamoyl)-phenyl]-piperazine-1-carboxylic acid 4-chloro-benzyl ester] | < 30
O=C(c1ccc2[nH]nnc2c1)N1CCC(N2CCN(C(=O)c3ccccc3-c3ccc(C(F)(F)F)cc3)CC2)CC1 [Compound 124, (1H-Benzotriazol-5-yl)-{4-[4-(4′-trifluoromethyl-biphenyl-2-carbonyl)-piperazin-1-yl]-piperidin-1-yl}-methanone] | < 10
O=C(Cc1ccc2[nH]nnc2c1)N1CCC(N2CCN(C(=O)Cc3ccc(C(F)(F)F)cc3)CC2)CC1 [Compound 138, 2-(1H-Benzotriazol-5-yl)-1-(4-{4-[2-(4-trifluoromethyl-phenyl)-acetyl]-piperazin-1-yl}-piperidin-1-yl)-ethanone] | < 10
O=C(Nc1ccc2[nH]nnc2c1)C1CC(=O)N(C2CCN(C(=O)CCc3ccc(C(F)(F)F)cc3)CC2)C1 (stereo not drawn) [Compound 3, 5-Oxo-1-{1-[3-(4-trifluoromethyl-phenyl)-propionyl]-piperidin-4-yl}-pyrrolidine-3-carboxylic acid (1H-benzotriazol-5-yl)-amide] | < 1
O=C(/C=C/c1cc(Cl)cc(Cl)c1)N1CCC(N2CCN(C(=O)c3ccc4[nH]nnc4c3)CC2)CC1 [Compound 90, (E)-1-{4-[4-(1H-Benzotriazole-5-carbonyl)-piperazin-1-yl]-piperidin-1-yl}-3-(3,5-dichloro-phenyl)-propenone] | < 1

Next, values leading:

IC50 [µM] | SMILES
< 1 | O=C(OCc1ccc(C(F)(F)F)c(F)c1)N1CCN(C2CCN(C(=O)c3ccc4[nH]nnc4c3)CC2)CC1 [Compound 158, 4-[1-(1H-Benzotriazole-5-carbonyl)-piperidin-4-yl]-piperazine-1-carboxylic acid 3-fluoro-4-trifluoromethyl-benzyl ester]
< 1 | O=C(OCc1cc(Br)cc(Br)c1)N1CCN(C2CCN(C(=O)c3ccc4[nH]nnc4c3)CC2)CC1 [Compound 148, 4-[1-(1H-Benzotriazole-5-carbonyl)-piperidin-4-yl]-piperazine-1-carboxylic acid 3,5-dibromo-benzyl ester]
< 1 | O=C(OCc1cc(F)cc(Br)c1)N1CCN(C2CCN(C(=O)c3ccc4[nH]nnc4c3)CC2)CC1 [Compound 154, 4-[1-(1H-Benzotriazole-5-carbonyl)-piperidin-4-yl]-piperazine-1-carboxylic acid 3-bromo-5-fluoro-benzyl ester]
< 10 | CN(C1CCN(C(=O)OCc2ccc(C(F)(F)F)cc2)CC1)C1CCN(C(=O)c2ccc3[nH]nnc3c2)C1 (stereo not drawn) [Compound 182, 4-{[1-(1H-Benzotriazole-5-carbonyl)-pyrrolidin-3-yl]-methyl-amino}-piperidine-1-carboxylic acid 4-trifluoromethyl-benzyl ester]
< 1 | O=C(NC1CCC(N2CCN(C(=O)OCc3cc(Cl)cc(C(F)(F)F)c3)CC2)CC1)c1ccc2[nH]nnc2c1 (stereo not drawn) [Compound 187, 4-{4-[(1H-Benzotriazole-5-carbonyl)-amino]-cyclohexyl}-piperazine-1-carboxylic acid 3-chloro-5-trifluoromethyl-benzyl ester]
< 10 | O=C(OCC1CN(c2ccc(Cl)cc2)C(=O)O1)N1CCN(C2CCN(C(=O)c3ccc4[nH]nnc4c3)CC2)CC1 (stereo not drawn) [Compound 175, 4-[1-(1H-Benzotriazole-5-carbonyl)-piperidin-4-yl]-piperazine-1-carboxylic acid 3-(4-chloro-phenyl)-2-oxo-oxazolidin-5-ylmethyl ester]
< 1 | O=C(OCc1cc(F)c(F)c(C(F)(F)F)c1)N1CCN(C2CCN(C(=O)c3ccc4[nH]nnc4c3)CC2)CC1 [Compound 165, 4-[1-(1H-Benzotriazole-5-carbonyl)-piperidin-4-yl]-piperazine-1-carboxylic acid 3,4-difluoro-5-trifluoromethyl-benzyl ester]
< 10 | O=C(NC1CCC(N2CCN(C(=O)OCc3ccc(C(F)(F)F)c(F)c3)CC2)CC1)c1ccc2[nH]nnc2c1 (stereo not drawn) [Compound 189, 4-{4-[(1H-Benzotriazole-5-carbonyl)-amino]-cyclohexyl}-piperazine-1-carboxylic acid 3-fluoro-4-trifluoromethyl-benzyl ester]
< 10 | O=C(OCc1cc(Cl)cc(C(F)(F)F)c1)N1CCN(C2CCN(S(=O)(=O)c3ccc4[nH]c(=O)oc4c3)CC2)CC1 [Compound 183, 4-[1-(2-Oxo-2,3-dihydro-benzooxazole-6-sulfonyl)-piperidin-4-yl]-piperazine-1-carboxylic acid 3-chloro-5-trifluoromethyl-benzyl ester]

— US9452997B2, “Piperidine and piperazine derivatives as autotaxin inhibitors” (Merck Patent GmbH, priority 2009, dated 2016)
